Reference: ChEMBL document CHEMBL1131494, “Novel 17-azolyl steroids, potent inhibitors of human cytochrome 17 alpha-hydroxylase-C17,20-lyase (P450(17) alpha): potential agents for the treatment of prostate cancer” (J Med Chem, 1998)

Assays:
[1] = biological target: T1, Steroid 17-alpha-hydroxylase/17,20 lyase (Homo sapiens, UniProt P05093); assay: Inhibition of human testicular microsomal cytochrome P450 17A1 at 150 nM; no inhibition
T1 sequence (P05093 whole entry): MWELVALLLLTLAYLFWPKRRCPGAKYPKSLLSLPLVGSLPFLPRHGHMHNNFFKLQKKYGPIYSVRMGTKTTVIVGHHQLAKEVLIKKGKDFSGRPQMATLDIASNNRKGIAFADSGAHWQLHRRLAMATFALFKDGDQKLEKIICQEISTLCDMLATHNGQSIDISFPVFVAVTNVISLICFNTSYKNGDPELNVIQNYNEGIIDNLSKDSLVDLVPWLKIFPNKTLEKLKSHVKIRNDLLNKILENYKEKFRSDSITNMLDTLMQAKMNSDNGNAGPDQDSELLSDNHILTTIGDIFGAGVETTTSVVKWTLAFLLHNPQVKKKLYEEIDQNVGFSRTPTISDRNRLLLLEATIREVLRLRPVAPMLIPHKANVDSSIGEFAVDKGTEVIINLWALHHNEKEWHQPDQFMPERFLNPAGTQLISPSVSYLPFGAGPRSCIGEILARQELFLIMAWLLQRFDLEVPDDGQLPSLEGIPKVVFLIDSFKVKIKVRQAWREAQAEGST

[2] = Inhibition of human steroid 5-alpha-reductase
[3] = biological target: T1, Steroid 17-alpha-hydroxylase/17,20 lyase
Description: Binding affinity for Cytochrome P450 17A1 (17-alpha-hydroxypregnenolone Km=560 nM)

[4] = biological target: T2, Steroid 17-alpha-hydroxylase/17,20 lyase (Rattus norvegicus, UniProt P11715); assay: Inhibition of rat Cytochrome P450 17A1
T2 sequence (P11715 whole entry): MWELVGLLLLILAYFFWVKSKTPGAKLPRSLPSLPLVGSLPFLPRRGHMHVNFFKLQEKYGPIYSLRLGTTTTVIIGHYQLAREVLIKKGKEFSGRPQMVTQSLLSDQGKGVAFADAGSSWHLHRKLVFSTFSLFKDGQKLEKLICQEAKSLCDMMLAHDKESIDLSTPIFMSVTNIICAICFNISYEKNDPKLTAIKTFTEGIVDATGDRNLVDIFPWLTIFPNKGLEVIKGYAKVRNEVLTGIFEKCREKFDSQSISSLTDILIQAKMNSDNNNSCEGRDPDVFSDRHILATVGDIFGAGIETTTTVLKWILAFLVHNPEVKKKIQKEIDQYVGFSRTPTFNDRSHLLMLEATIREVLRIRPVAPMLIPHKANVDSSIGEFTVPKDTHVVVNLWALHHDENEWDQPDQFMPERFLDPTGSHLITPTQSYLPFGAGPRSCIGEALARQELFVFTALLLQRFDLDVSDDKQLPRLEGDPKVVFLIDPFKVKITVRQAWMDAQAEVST

[5] = biological target: T1, Steroid 17-alpha-hydroxylase/17,20 lyase; assay: Inhibition of human testicular microsomal Cytochrome P450 17A1
[6] = biological target: T1, Steroid 17-alpha-hydroxylase/17,20 lyase; assay: Inhibition of human testicular microsomal cytochrome P450 17A1 at 150 nM; NI = No inhibition; conditions: 0.15 µM
[7] = biological target: T2, Steroid 17-alpha-hydroxylase/17,20 lyase; assay: Inhibition of rat cytochrome P450 17A1
[8] = biological target: T1, Steroid 17-alpha-hydroxylase/17,20 lyase; remark: listed apart in the source
[9] = biological target: T1, Steroid 17-alpha-hydroxylase/17,20 lyase; assay: Inhibition of human testicular microsomal cytochrome P450 17A1 at 150 nM; NI = No inhibition; conditions: 0.15 µM

SMILES	IC50 [2] [nM]	Ki [3] [nM]	IC50 [4] [nM]	IC50 [5] [nM]	also measured
C[C@]12CC[C@H](O)CC1=CCC1C2CC[C@]2(C)C(n3nccn3)=CCC12 (stereo partly drawn)					IC50 [1]: Not Active
C[C@]12CCC(=O)C=C1CCC1C2CC[C@]2(C)C(n3cncn3)=CCC12 (stereo partly drawn)	152	41	11	55	
C[C@]12CC[C@H](O)CC1=CCC1C2CC[C@]2(C)C(n3cnnn3)=CCC12 (stereo partly drawn)					Inhibition [6]: Not Active
C[C@]12CCC(=O)C=C1CCC1C2CC[C@]2(C)C(n3ccnc3)=CCC12 (stereo partly drawn)	142	1.9	8	7	
C[C@]12CC[C@H](O)CC1=CC[C@@H]1[C@@H]2CC[C@]2(C)C(n3cncn3)=CC[C@@H]12	160000	23		90	IC50 [7]: 26 nM
C[C@]12CC[C@H](O)CC1=CCC1C2CC[C@]2(C)C(n3ccnc3)=CCC12 (stereo partly drawn)	400000	1.2	9	8	
C[C@]12CCC(=O)C=C1CCC1C2CC[C@]2(C)C(n3ccnn3)=CCC12 (stereo partly drawn)	198			19	IC50 [7]: 9 nM; Ki [8]: 8 nM
C[C@]12CC[C@H](O)CC1=CCC1C2CC[C@]2(C)C(n3ccnn3)=CCC12 (stereo partly drawn)	10000	1.4	10	13	
C[C@]12CC[C@H](O)CC1=CCC1C2CC[C@]2(C)C(n3ncnn3)=CCC12 (stereo partly drawn)					Inhibition [9]: Not Active
CC(C)(C)NC(=O)[C@H]1CC[C@H]2[C@@H]3CC[C@H]4NC(=O)C=C[C@]4(C)[C@H]3CC[C@]12C [FINASTERIDE]	33				
